Results on eleven compounds are retold here after article PMC4234457, “Primary porcine proximal tubular cells as an alternative to human primary renal cells in vitro: an initial characterization” (BMC Cell Biology, 2013).

SMILES strings stand for the structures. Counter-ions that a name gives are not always drawn. Like-named read-outs stand apart in the source and are kept apart here.

The subject of data set [1] is Oat1 or Oat3. As to the kind of experiment: Transporter induction experiments (RT-PCR of transporter mRNA in PKC). The class given is cell-based, porcine. The method, then: For transporter induction experiments, freshly isolated PKC cells were seeded (total of 2 × 10^4 cells cm^-2) on 6-well ThinCert PET tissue culture inserts in standard culture medium and medium was changed every 48 hours. […] After 48 hours of exposure, samples for RNA extraction were prepared by standard trypsin-EDTA treatment followed by washing with PBS. Resulting cell pellets were snap-frozen and stored at -80°C until use.
Total RNA was prepared from cell pellets and minced pieces of tissue (rat kidney and porcine kidney cortex) via the phenol-chloroform method using Trizol (Invitrogen, Karlsruhe, Germany). Concentration and quality was estimated via 260/280 nm values. Representative samples were tested for RNA integrity via denaturing electrophoresis. cDNA was prepared using 1 μg total RNA, Oligo (dT)18 and M-MuLV reverse transcriptase according to manufacturer’s instructions. PCR was performed using 2 μl cDNA sample, 2 × PCR Master Mix, specific primers (Table 3). Amplification was performed with an initial denaturation step at 92°C for 3 min followed by 30 cycles of 94°C for 60 sec, 58°C for 60 sec and 72°C for 60 sec and a final extension step at 72°C for 7 min.

Data set [2] deals with pOat3. The settings on record: cited from earlier work; for Inhibitory effect on pOat3-mediated ES transport: oocytes.
For data set [3], the system named is pOat1. The settings on record: cited from earlier work; for Inhibition of pOat1-mediated PAH uptake: oocytes.
Data set [4] has as its system hOAT3. The settings on record: cited from earlier work.
For data set [5], the system named is OAT3 (SLC22A8). On the set-up: method as in supplement 1. The settings on record: Rat, cited from earlier work.
Data set [6] deals with PKC. Nature of the data set: Inhibition of cellular PAH uptake in PKC. The settings on record: 50 μM PAH, inhibitor 1 mM, 10 min; for Reduction of PAH BBM uptake: Figure 3A.
Method: For transport studies, PKC were seeded (1 × 10^5 cells/cm^2) on 6-well PET filter inserts with 0.4 μm pore size. The use of filter inserts allows measurement of transport across the BLM (basolateral membrane) and the BBM (brushborder membrane) by addition of substrates to media in the lower and upper compartment, respectively. […] The cells were incubated at 37°C for the indicated times. […] Thereafter, cells were acidified with 1 M HCl and an aliquot was used for protein determination using the Bradford assay. 1 ml of medium from each compartment and of solubilized cells was placed into 10 ml scintillation cocktail and radioactivity was measured in a Beckman LS 6500 scintillation counter.
Data set [7] concerns hOAT4. The settings on record: hOAT4, MTX; cited from earlier work.
For data set [8], the system named is primary human proximal tubular cells. Set-up: method as in PMID 16997449. The settings on record: cited from earlier work.
Data set [9] concerns PKC. As to the kind of experiment: Transport assays (kinetics): cellular uptake of radiolabelled PAH and MTX across BBM and BLM of PKC on filter inserts. The class given is in vitro ADME, porcine. The settings on record: for Km: confluent PKC, 30 min incubation, mean ± SEM, n = 3. The method, then: For transport studies, tightness of the cellular monolayers was inspected microscopically before use. Additionally, radiolabelled substrates were measured in the both chambers (above and below the cell layer) to determine cell layer leakiness. In case of lacking or reduced tightness of the monolayer, very high counts (dpm) were measured in the respective opposite compartment. These resulting counts (dpm) were several-magnitudes greater than those that could have been expected from potential transepithelial transport. Data from cell preparations with such apparent cell layer leakiness were omitted from calculation.
For kinetic data, raw transport data (dpm) were submitted to intra-assay normalization using the blanks described above and calculated using the following equation:
meandpm×totalvolume/countedvolume×60sec×specificactivity×proteincontent×assaytime=substratepmol/mg×min

Data set [10] has as its system hOAT1. The settings on record: hOAT1, MTX; cited from earlier work.
In data set [11] the test system is hMRP4. The settings on record: hMRP4, MTX; cited from earlier work.
Data set [12] concerns primary porcine kidney cells (PKC). As to the kind of experiment: MTT reduction cytotoxicity assay in PKC. The settings on record: for EC50: read-out: EC50 (cytotoxicity), 1-500 μM, positive control. The method, then:
Cytotoxicity experiments using the MTT reduction assay as previously described, were conducted to estimate non-toxic concentrations for subsequent analyses. All chemicals and stock solutions (Tables 1 and 2) were sterilized by filtration (0.2 μm) prior to testing. […] Absorbance was read at 550 nm using a microplate reader (Infinite M200, Tecan, Crailsheim, Germany).
Conversely, in the transport induction experiments (prolonged substrate exposure/low concentrations, Table 2) cytotoxicity was determined after 24, 48, 72 and 96 hours of exposure. All assays were performed with the respective vehicle controls (Tables 1 and 2) and cadmium chloride as positive control.
Cytotoxicity data were calculated as means ± SEM from at least three independent replicate experiments conducted in technical duplicates, followed by a One-way ANOVA with a subsequent Dunnett’s multiple comparison test (P < 0.05).

Where [13] appears, read: PKC, 50 nM or 1 μM to basolateral compartment, 48 hours, RT-PCR.

Turning to `C[C@]12CC[C@H](OS(=O)(=O)O)CC1=CC[C@@H]1[C@@H]2CC[C@]2(C)C(=O)CC[C@@H]12` [dehydroepi-androsteron sulfate], in [1] (setting [13]), the “Stimulatory effect on transporter mRNA expression” value (shortened to “Stimulatory effect”) was “none of the tested substances showed any stimulatory effect”. Also, in [2], the “Inhibitory effect on pOat3-mediated ES transport” value (from here on “Inhibitory effect”) is “inhibitory effect”.

As for `O=C(O)CCCC(=O)O` [glutarate], the “Inhibition of pOat1-mediated PAH uptake” value in [3] (0.5 mM) is “could be inhibited”. Besides, the “Inhibitory effect” value in [2] was “inhibitory effect”.

As to `C[C@]12CC[C@@H]3c4ccc(OS(=O)(=O)O)cc4CC[C@H]3[C@@H]1CCC2=O` [estrone sulfate], the Km in data set [4] (hOAT3, ES, read-out: Km) is 3.1 to 9.5 µM; in data set [5] (ref supplement 1, read-out: KM (ES)) it was 2.3 to 5.3 µM; in data set [2] (pOat3 expressed in X. laevis oocytes, read-out: apparent Km), 7.8 ± 1.3 µM. The “Inhibition of PAH uptake from either direction (BBM or BLM)” value in data set [6] is on record as “not able to inhibit PAH uptake”.

Turning to `CN(Cc1cnc2nc(N)nc(N)c2n1)c1ccc(C(=O)N[C@@H](CCC(=O)O)C(=O)O)cc1` [methotrexate], the Km in [4] (hOAT3, MTX, read-out: Km) is 10.9 to 21.1 µM; in data set [7] it was 17.8 µM; in data set [8] (human kidney cells (HKC), hOAT1-associated, read-out: Km of MTX transport across the BBM), 80.4 ± 3.4 µM; in data set [8] (human kidney cells (HKC), hOAT1-associated, read-out: Km of MTX transport across the BLM) it was 28.5 ± 1.1 µM; in data set [10] it was 554 to 724 µM; in data set [11] it was 220 to 1300 µM. Moreover, in [9] (PKC, radiolabelled substrate), the Cellular uptake entry is recorded as “negligible”. In addition, the “Reduction of PAH BBM uptake” value in data set [6] is reported as “up to 30%”.

For the compound `Nc1ccc(C(=O)NCC(=O)O)cc1` [p-aminohippuric acid], the Km is 50 to 100 µM in data set [4] (OAT3 (SLC22A8), Human, ref supplement 1, read-out: KM (PAH)); 36.6 ± 1.2 µM in data set [8] (primary human proximal tubular cells, read-out: BBM Km of PAH uptake); 57.5 ± 4.1 µM in data set [8] (primary human proximal tubular cells, read-out: BLM Km of PAH uptake); 187 ± 70.2 µM in [9] (basolateral membrane, read-out: Km of PAH uptake across BLM); 58.8 ± 12.6 µM in data set [9] (brushborder membrane, read-out: Km of PAH uptake across BBM); 3.7 µM in data set [3] (OAT1 (SLC22A6), Pig, ref supplement 1, 2, read-out: KM (PAH)). For the same compound, the Km is 3.75 ± 1.6 µM in data set [3] (pOat1 variant expressed in Xenopus laevis oocytes, read-out: apparent Km) and 60 to 65 µM in [5] (ref supplement 1, read-out: KM (PAH)). In addition, the “Time to saturation of PAH uptake” value in data set [9] (PKC, 50 μM substrate, Figure 2B) lay in the range of 5 to 10 min. The “BBM uptake compared to BLM uptake” value in data set [9] (PKC, PAH uptake, Figure 2A) is reported as “about 3 times”. The “Affinity of the other pOat1 variant” value in data set [3] (one pOat1 splice variant expressed in Xenopus laevis oocytes) is on record as “did not show any affinity”.

In the case of `O=C1OC(c2ccc(O)c(S(=O)(=O)O)c2)(c2ccc(O)c(S(=O)(=O)O)c2)c2c(Br)c(Br)c(Br)c(Br)c21` [bromosulphophthalein], the “Stimulatory effect” value in data set [1] (setting [13]) is given as “none of the tested substances showed any stimulatory effect”. Moreover, in data set [6], the “Reduction of PAH BBM uptake” value is reported as “up to 30%”.

For the compound `N[C@@H](Cc1cc(I)c(Oc2ccc(O)c(I)c2)c(I)c1)C(=O)O` [triiodothyronine], the “Stimulatory effect” value in [1] (setting [13]) is reported as “none of the tested substances showed any stimulatory effect”.

For `C[C@@H]1Cc2c(Cl)cc(C(=O)N[C@@H](Cc3ccccc3)C(=O)O)c(O)c2C(=O)O1` [ochratoxin A], the “Reduction of PAH BBM uptake” value in [6] was “up to 30%”.

For `C[C@H](CCC(=O)NCCS(=O)(=O)O)[C@H]1CC[C@H]2[C@@H]3[C@H](O)C[C@@H]4C[C@H](O)CC[C@]4(C)[C@H]3C[C@H](O)[C@]12C` [taurocholic acid], in [12], the “Significant effects (cytotoxicity of potential transporter inducers)” value is listed as “no”. Moreover, the “Stimulatory effect” value in data set [1] was “none of the tested substances showed any stimulatory effect”.

Take `[Cl][Cd][Cl]` [cadmium chloride]: in [12] (PKC, MTT, exposure >48 hours (data not shown)), the “Cytotoxicity on longer exposure” value was “did not result in further increased cytotoxicity”. Besides, the EC50 in data set [12] (PKC, MTT, 24 hours of exposure) was 103 µM; in data set [12] (PKC, MTT, 48 hours of exposure), 57.2 µM.

On to `CCCN(CCC)S(=O)(=O)c1ccc(C(=O)O)cc1` [probenecid], for which, in data set [3] (1 mM), the “Inhibition of pOat1-mediated PAH uptake” value is “could be inhibited”. The “Inhibitory effect” value in data set [2] is on record as “inhibitory effect”. In data set [6], the “Inhibition of PAH uptake from either direction (BBM or BLM)” value is recorded as “did not show any inhibitory effect”.
